Entries after “also recorded” stand apart in the source; their conditions may differ.
What was measured:
[1] = system: Dahl SS rats on high-salt diet; test: Seven-point Neuroscore test, Dahl salt-sensitive rat stroke model; assay type: in vivo; settings: throughout the study (weeks 1-8); grade 6 = normal
Procedure: (§1) Dahl SS rats were divided into three treatment groups: High-Salt diet+vehicle (n=20), High-Salt diet+Levosimendan 1 mg/kg/day (n=20), and Normal-Salt diet control (n=4). High salt diet contained 7% of NaCl in commercial low salt diet. Feeding with the high-salt diet was started at the age of 6 weeks and continued 7 weeks until the end of the study. Levosimendan was administered via drinking water (2 mg/l of levosimendan in drinking water). The administration was started at the same time as the high-salt diet and continued until the end of the study. The consumption of drinking water and food as well as the body weight and general health of the animals were monitored. MRI was performed once-a-week during the weeks 2-8. FOB and 7-point Neuroscore testing were performed once-a-week during the weeks 1-3 and twice-a-week during weeks the 4-8.
(§2) Functional observational battery (FOB) and Neuroscore testing were performed once-a-week during weeks 1-3 and twice-a-week during weeks 4-8.
A seven-point neuroscore test was used to assess motor and behavioral deficits (modified from Zausinger et al. Brain Res. 863:94-105, 2000). The neurological test was conducted by an investigator blinded to the treatment status of the rats. The seven-point scale was as follows:
Grade 6: Normal extension of both forelimbs towards the floor when lifted gently by the tail. […]

salt sensitive rat model = test: Stroke in salt sensitive rat model (summary statements); assay type: in vivo; settings: preventative treatment
[2] = system: Dahl SS rats on high-salt diet; test: In vivo T2-weighted MRI of brain lesions, Dahl salt-sensitive rat stroke model; settings: for share of animals with T2-lesion volume 0 mm^3 / share of animals with T2-lesion volume 1-50 mm^3 / share of animals with T2-lesion volume 51-100 mm^3 / share of animals with T2-lesion volume >200 mm^3: in vivo MRI
Procedure: (§3) Effect of levosimendan on the incidence of cerebral strokes in Dahl salt-sensitive rat stroke model was studied using Magnetic Resonance Imaging (MRI) and behavioural tests (Neuroscore and Functional Observational Battery (FOB)).
as §1
Diffusion and T2-weighted MRI using Varian Inova console interfaced to a 4.7 T horizontal magnet (Magnex Scientific Ltd.) was performed once-a-week on halothane-anesthetized rats. T2-weighted imaging and quantitative diffusion imaging were used to determine lesion size and to characterize plausible ischaemic lesions in Dahl SS rats. Typical lesions were heterogeneous and consisted of several different regions with different MRI characteristics. Hyperintensity in T2-weighted imaging was found in practically all animals with detectable abnormalities. This can be interpreted as oedematous tissue, which is typical for ischaemic tissue and is, in general, detectable starting at ˜12-24 h after occlusion of the feeding vessel. […] At the high magnetic field (4.7 T) used in this study, any ferromagnetic substance causes local disruption in magnetic field homogeneity which destroys the signal in T2-weighted imaging. This is a characteristic MRI feature for hemorrhage as haemoglobin in blood contains Fe. Thus almost all lesions detected in this study can be characterized to be associated with hemorrhage.

[3] = system: Dahl SS rats on high-salt diet; test: Functional observational battery (FOB), Dahl salt-sensitive rat stroke model; assay type: in vivo; settings: weeks 1-8, levosimendan 1 mg/kg/day
Procedure: as §1, §2
All rats were observed using standardized procedures. The procedures included observation of rats in the home cage, while moving in open arena and through manipulative tests. The measures included:
(1) Home-Cage Measurements:
Body position, Respiration, Vocalization and Palpebral closure.
(2) Hand-Held Observations: […]

[4] = system: Dahl SS rats on high-salt diet; test: Mortality in Dahl salt-sensitive rat stroke model (Experiment 2); assay type: in vivo; settings: High-Salt diet + Levosimendan 1 mg/kg/day (2 mg/l in drinking water), 7 weeks, n=20; vehicle group 70%
Procedure: as §3, §1

CC1CC(=O)NN=C1c1ccc(NN=C(C#N)C#N)cc1 (single isomer, unassigned; (-)) [levosimendan, (−)-enantiomer of [[4-(1,4,5,6-tetrahydro-4-methyl-6-oxo-3-pyridazinyl)phenyl]hydrazono]propanedinitrile]
seven-point Neuroscore [1]: scored maximum scores throughout the study | incidence and volume of brain lesions, behavioural disorders and mortality associated with stroke (salt sensitive rat model): reduces and/or postpones; also recorded: markedly reduce | noticeable T2-weighted MRI changes ([2]; 6th week of the study, more than 50% of vehicle treated animals had changes): no changes were observed | animals with detectable T2-weighted MRI changes ([2]; at the last MRI measurement, 85% of vehicle treated animals): 10% | share of animals with T2-lesion volume 0 mm^3 ([2]; week 2, lesion volume class 0 mm^3, levosimendan 1 mg/kg/day in drinking water): 95% | share of animals with T2-lesion volume 1-50 mm^3 ([2]; week 2, lesion volume class 1-50 mm^3, levosimendan 1 mg/kg/day in drinking water): 5% | share of animals with T2-lesion volume 51-100 mm^3 ([2]; week 2, lesion volume class 51-100 mm^3, levosimendan 1 mg/kg/day in drinking water): 0% | share of animals with T2-lesion volume >200 mm^3 ([2]; week 2, lesion volume class >200 mm^3, levosimendan 1 mg/kg/day in drinking water): 0% | share of animals with T2-lesion volume 0 mm^3 ([2]; week 3, lesion volume class 0 mm^3, levosimendan 1 mg/kg/day in drinking water): 100% | share of animals with T2-lesion volume 1-50 mm^3 ([2]; week 3, lesion volume class 1-50 mm^3, levosimendan 1 mg/kg/day in drinking water): 0% | share of animals with T2-lesion volume 51-100 mm^3 ([2]; week 3, lesion volume class 51-100 mm^3, levosimendan 1 mg/kg/day in drinking water): 0% | share of animals with T2-lesion volume >200 mm^3 ([2]; week 3, lesion volume class >200 mm^3, levosimendan 1 mg/kg/day in drinking water): 0% | share of animals with T2-lesion volume 0 mm^3 ([2]; week 4, lesion volume class 0 mm^3, levosimendan 1 mg/kg/day in drinking water): 95% | share of animals with T2-lesion volume 1-50 mm^3 ([2]; week 4, lesion volume class 1-50 mm^3, levosimendan 1 mg/kg/day in drinking water): 5% | share of animals with T2-lesion volume 51-100 mm^3 ([2]; week 4, lesion volume class 51-100 mm^3, levosimendan 1 mg/kg/day in drinking water): 0% | share of animals with T2-lesion volume >200 mm^3 ([2]; week 4, lesion volume class >200 mm^3, levosimendan 1 mg/kg/day in drinking water): 0% | share of animals with T2-lesion volume 0 mm^3 ([2]; week 5, lesion volume class 0 mm^3, levosimendan 1 mg/kg/day in drinking water): 100% | share of animals with T2-lesion volume 1-50 mm^3 ([2]; week 5, lesion volume class 1-50 mm^3, levosimendan 1 mg/kg/day in drinking water): 0% | share of animals with T2-lesion volume 51-100 mm^3 ([2]; week 5, lesion volume class 51-100 mm^3, levosimendan 1 mg/kg/day in drinking water): 0% | share of animals with T2-lesion volume >200 mm^3 ([2]; week 5, lesion volume class >200 mm^3, levosimendan 1 mg/kg/day in drinking water): 0% | share of animals with T2-lesion volume 0 mm^3 ([2]; week 6, lesion volume class 0 mm^3, levosimendan 1 mg/kg/day in drinking water): 100% | share of animals with T2-lesion volume 1-50 mm^3 ([2]; week 6, lesion volume class 1-50 mm^3, levosimendan 1 mg/kg/day in drinking water): 0% | share of animals with T2-lesion volume 51-100 mm^3 ([2]; week 6, lesion volume class 51-100 mm^3, levosimendan 1 mg/kg/day in drinking water): 0% | share of animals with T2-lesion volume >200 mm^3 ([2]; week 6, lesion volume class >200 mm^3, levosimendan 1 mg/kg/day in drinking water): 0% | share of animals with T2-lesion volume 0 mm^3 ([2]; week 7, lesion volume class 0 mm^3, levosimendan 1 mg/kg/day in drinking water): 90% | share of animals with T2-lesion volume 1-50 mm^3 ([2]; week 7, lesion volume class 1-50 mm^3, levosimendan 1 mg/kg/day in drinking water): 0% | share of animals with T2-lesion volume 51-100 mm^3 ([2]; week 7, lesion volume class 51-100 mm^3, levosimendan 1 mg/kg/day in drinking water): 10% | share of animals with T2-lesion volume >200 mm^3 ([2]; week 7, lesion volume class >200 mm^3, levosimendan 1 mg/kg/day in drinking water): 0% | share of animals with T2-lesion volume 0 mm^3 ([2]; week 8, lesion volume class 0 mm^3, levosimendan 1 mg/kg/day in drinking water): 89% | share of animals with T2-lesion volume 1-50 mm^3 ([2]; week 8, lesion volume class 1-50 mm^3, levosimendan 1 mg/kg/day in drinking water): 5% | share of animals with T2-lesion volume 51-100 mm^3 ([2]; week 8, lesion volume class 51-100 mm^3, levosimendan 1 mg/kg/day in drinking water): 0% | share of animals with T2-lesion volume >200 mm^3 ([2]; week 8, lesion volume class >200 mm^3, levosimendan 1 mg/kg/day in drinking water): 5% | stroke-associated behavioural deficits observed in FOB testing [3]: markedly reduce and postpone | mortality during the study [4]: 5%

Source: US8329693B2, “Method for the prevention of thromboembolic disorders” (Orion Corporation, priority 2004, dated 2012)
